Legend:
DYRK2 = biological target: T1, DYRK2 (Homo sapiens, UniProt Q92630); experiment: scanMAX Kinase panel (DiscoverX), % control; assay type: binding; conditions: <35% = active
T1 construct: purchased DiscoverX
T1 sequence (Q92630 1-601): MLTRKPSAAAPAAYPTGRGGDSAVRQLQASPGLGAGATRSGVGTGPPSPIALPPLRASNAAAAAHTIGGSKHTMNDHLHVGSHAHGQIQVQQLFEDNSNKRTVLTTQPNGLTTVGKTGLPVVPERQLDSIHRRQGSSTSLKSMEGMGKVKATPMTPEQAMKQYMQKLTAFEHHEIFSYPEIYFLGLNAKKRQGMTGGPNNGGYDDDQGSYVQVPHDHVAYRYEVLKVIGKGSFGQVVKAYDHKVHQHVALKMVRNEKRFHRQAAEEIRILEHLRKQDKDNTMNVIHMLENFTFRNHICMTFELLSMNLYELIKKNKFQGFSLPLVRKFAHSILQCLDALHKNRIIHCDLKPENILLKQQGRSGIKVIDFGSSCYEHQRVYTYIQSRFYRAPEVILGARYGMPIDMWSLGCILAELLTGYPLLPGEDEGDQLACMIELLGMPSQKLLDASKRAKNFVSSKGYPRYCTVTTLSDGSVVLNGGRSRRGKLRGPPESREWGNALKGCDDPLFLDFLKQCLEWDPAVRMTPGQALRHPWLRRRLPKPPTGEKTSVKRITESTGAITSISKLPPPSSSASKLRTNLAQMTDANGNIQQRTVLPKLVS
Procedure: (§1) Specifically, for Examples 162, 160, 105, 217, 205, 96, 207, 184, 206, 221, 238, and 237 selected among the example compounds of the present invention, it was decided to measure enzyme (kinase) selectivity by DiscoverX, and the experiment was conducted using a panel for scanMAX™ Kinase analysis. At this time, the concentration of the drug treated with the enzyme was 1 uM in DMSO, the control percentage (% control) was determined in the same way as in Equation 1 below, and the results were shown in Table 6 below. [formula] Here, the positive control refers to a compound showing a control percentage of 0%, and the negative control is DMSO, indicating a control percentage of 100%. Also, in the enzyme selectivity of the present invention, if the control percentage for each enzyme was <35% (i.e., less than 35%), it was determined to have activity against the relevant enzyme.

ALK (C1156Y) = biological target: T2, ALK (C1156Y) (Homo sapiens, UniProt Q9UM73, C1156Y); experiment: scanMAX Kinase panel (DiscoverX), % control; assay type: binding; conditions: <35% = active
T2 construct: purchased DiscoverX
T2 sequence (Q9UM73 19-1620 C1156Y): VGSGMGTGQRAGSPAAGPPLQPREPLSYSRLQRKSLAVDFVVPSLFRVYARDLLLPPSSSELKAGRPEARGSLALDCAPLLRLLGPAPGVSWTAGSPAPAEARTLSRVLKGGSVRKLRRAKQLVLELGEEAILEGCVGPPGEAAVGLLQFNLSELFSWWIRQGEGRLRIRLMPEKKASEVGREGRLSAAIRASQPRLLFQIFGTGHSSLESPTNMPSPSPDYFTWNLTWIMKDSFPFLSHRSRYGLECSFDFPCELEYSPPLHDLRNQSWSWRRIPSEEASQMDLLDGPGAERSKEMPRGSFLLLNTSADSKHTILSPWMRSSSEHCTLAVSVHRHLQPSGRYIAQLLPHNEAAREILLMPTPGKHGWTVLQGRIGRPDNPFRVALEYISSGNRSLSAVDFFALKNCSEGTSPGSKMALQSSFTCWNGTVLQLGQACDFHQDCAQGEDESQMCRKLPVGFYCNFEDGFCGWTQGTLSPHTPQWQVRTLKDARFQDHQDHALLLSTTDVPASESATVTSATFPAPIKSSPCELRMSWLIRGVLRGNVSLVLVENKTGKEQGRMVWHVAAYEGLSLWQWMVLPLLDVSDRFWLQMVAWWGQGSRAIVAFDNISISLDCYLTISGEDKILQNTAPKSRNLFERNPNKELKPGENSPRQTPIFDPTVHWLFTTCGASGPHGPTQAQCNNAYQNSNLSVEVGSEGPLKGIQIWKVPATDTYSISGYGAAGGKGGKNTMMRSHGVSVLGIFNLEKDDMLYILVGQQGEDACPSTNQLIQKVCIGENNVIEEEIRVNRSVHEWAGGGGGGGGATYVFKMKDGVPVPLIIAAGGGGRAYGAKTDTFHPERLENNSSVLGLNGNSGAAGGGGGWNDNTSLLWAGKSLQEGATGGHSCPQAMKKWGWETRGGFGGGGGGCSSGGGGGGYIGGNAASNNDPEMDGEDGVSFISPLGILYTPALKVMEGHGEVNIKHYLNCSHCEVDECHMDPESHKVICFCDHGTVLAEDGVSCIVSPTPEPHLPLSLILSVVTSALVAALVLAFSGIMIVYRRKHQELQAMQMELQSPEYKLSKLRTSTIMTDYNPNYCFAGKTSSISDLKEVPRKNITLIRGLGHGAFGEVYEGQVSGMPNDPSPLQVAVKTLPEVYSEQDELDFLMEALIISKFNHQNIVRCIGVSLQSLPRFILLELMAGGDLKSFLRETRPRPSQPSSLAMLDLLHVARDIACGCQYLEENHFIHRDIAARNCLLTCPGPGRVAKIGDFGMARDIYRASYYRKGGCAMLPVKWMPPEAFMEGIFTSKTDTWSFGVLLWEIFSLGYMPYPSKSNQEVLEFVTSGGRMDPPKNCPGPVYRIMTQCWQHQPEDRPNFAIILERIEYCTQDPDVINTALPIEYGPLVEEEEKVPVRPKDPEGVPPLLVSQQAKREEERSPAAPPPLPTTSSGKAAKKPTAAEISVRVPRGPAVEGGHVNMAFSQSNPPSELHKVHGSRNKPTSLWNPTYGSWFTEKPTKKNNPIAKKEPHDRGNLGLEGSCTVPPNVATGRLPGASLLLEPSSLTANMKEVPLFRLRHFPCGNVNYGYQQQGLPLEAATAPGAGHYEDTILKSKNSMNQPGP
Procedure: as §1

DYRK1B = biological target: T3, DYRK1B (Homo sapiens, UniProt Q9Y463); experiment: scanMAX Kinase panel (DiscoverX), % control; assay type: binding; conditions: <35% = active
T3 construct: purchased DiscoverX
T3 sequence (Q9Y463 whole entry): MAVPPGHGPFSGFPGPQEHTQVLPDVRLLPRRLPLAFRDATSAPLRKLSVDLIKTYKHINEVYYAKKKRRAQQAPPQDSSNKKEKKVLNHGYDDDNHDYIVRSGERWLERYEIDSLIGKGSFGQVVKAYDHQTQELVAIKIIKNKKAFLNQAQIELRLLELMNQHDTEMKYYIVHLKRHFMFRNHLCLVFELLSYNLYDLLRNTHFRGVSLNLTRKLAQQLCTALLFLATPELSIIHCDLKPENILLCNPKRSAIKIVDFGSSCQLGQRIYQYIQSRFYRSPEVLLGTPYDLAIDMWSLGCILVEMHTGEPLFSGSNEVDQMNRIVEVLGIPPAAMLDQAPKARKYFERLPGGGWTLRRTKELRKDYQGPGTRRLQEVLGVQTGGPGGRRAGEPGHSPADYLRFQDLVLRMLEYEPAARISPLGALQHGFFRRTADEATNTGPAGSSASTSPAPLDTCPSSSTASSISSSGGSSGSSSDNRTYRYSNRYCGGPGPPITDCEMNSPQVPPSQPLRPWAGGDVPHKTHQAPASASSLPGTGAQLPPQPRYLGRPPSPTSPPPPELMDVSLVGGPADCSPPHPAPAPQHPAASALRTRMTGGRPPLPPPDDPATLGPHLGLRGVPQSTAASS
Procedure: as §1

CLK3 = biological target: T4, CLK3 (Homo sapiens, UniProt P49761); experiment: scanMAX Kinase panel (DiscoverX), % control; assay type: binding; conditions: <35% = active
T4 construct: purchased DiscoverX
T4 sequence (P49761 whole entry): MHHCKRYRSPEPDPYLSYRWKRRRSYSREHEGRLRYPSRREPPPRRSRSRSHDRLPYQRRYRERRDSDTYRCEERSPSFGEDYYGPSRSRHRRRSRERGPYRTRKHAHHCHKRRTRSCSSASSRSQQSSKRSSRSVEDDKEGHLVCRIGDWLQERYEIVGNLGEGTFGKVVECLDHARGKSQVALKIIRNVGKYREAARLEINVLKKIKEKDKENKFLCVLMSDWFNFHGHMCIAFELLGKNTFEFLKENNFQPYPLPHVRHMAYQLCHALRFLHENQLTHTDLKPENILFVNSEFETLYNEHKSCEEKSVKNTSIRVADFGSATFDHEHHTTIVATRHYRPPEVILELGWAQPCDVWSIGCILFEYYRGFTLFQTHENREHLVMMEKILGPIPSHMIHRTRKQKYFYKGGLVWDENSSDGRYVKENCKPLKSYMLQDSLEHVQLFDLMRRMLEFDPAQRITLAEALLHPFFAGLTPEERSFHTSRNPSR
Procedure: as §1

CLK1 = biological target: T5, CLK1 (Homo sapiens, UniProt P49759); experiment: scanMAX Kinase panel (DiscoverX), % control; assay type: binding; conditions: <35% = active
T5 construct: purchased DiscoverX
T5 sequence (P49759 whole entry): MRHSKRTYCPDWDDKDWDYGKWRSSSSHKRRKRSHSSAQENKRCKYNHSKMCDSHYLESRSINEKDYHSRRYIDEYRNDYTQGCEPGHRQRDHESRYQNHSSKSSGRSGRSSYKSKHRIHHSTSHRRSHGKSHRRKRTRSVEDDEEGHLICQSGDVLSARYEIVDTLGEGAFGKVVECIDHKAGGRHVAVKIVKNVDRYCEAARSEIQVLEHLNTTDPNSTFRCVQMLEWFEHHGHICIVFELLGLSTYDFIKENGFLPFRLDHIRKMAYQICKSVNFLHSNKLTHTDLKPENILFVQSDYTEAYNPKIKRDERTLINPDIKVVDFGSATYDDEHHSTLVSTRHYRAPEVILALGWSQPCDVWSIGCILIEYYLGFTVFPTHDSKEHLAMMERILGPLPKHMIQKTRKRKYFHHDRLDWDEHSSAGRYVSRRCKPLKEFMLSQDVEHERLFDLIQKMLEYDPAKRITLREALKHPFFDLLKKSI
Procedure: as §1

ALK = biological target: T6, ALK (Homo sapiens, UniProt Q9UM73); experiment: scanMAX Kinase panel (DiscoverX), % control; assay type: binding; conditions: <35% = active
T6 construct: purchased DiscoverX
T6 sequence (Q9UM73 19-1620): as the sequence (Q9UM73 19-1620 C1156Y) above, with Y1138C counted along it
Procedure: as §1

CLK2 = biological target: T7, CLK2 (Homo sapiens, UniProt P49760); experiment: scanMAX Kinase panel (DiscoverX), % control; assay type: binding; conditions: <35% = active
T7 construct: purchased DiscoverX
T7 sequence (P49760 whole entry): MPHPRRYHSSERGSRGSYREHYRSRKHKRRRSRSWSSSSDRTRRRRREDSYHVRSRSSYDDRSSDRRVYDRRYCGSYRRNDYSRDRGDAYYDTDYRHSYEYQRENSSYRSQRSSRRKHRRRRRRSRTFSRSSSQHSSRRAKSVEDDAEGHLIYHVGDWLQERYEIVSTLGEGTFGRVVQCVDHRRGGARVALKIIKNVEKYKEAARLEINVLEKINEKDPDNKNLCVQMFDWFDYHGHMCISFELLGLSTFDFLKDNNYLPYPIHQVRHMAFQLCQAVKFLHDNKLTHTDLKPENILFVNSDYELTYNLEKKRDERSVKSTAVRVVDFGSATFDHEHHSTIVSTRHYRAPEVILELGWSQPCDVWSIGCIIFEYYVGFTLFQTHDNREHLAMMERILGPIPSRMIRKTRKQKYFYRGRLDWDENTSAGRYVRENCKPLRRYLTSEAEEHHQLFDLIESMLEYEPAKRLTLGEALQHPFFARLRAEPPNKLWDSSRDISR
Procedure: as §1

IL-6 = IL-6 secretion inhibition in LPS-treated THP-1 cells (ELISA); assay type: cell-based; conditions: Homo sapiens, compound 0.5 μM, LPS 500 ng/ml, 24 hours, read-out: THP1/IL6 (% inhib)
Summary of the method: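 Human monocytic THP-1 cells were pre-cultured 16 h at 37° C., then treated with compound at 0.5 μM final, followed by LPS at 500 ng/ml final. After 24 h, IL-6 and TNF-α in culture supernatant were quantified by ELISA with absorbance read at 450 nm.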

human DYRK1A and Tau = experiment: Tau phosphorylation inhibition, ClariCELL Kinase Cell-Based Assay (Carnabio)
Summary of the method: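 HEK293 cells transiently expressing human DYRK1A and Tau were exposed to compound, then lysed. Released Tau was captured on plate and its phosphorylation quantified by ELISA with a phospho-Tau-specific antibody.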

[1] = biological target: T8, human GST-DYRK1A (full length) (Homo sapiens, UniProt Q13627); experiment: GST-DYRK1A enzyme inhibition, ADP-Glo kinase assay; assay type: biochemical; conditions: read-out: DYRK1 IC50
T8 construct: purified human GST-DYRK1A (full length, Thermo scientifics) enzyme; GST; purchased Thermo scientifics
Summary of the method: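 ADP-Glo luminescence quantified kinase activity after a 1 h, 25° C reaction of 10 ng full-length GST-tagged human DYRK1A, substrate and 10 uM ATP in Tris-HCl buffer pH 7.4 with MgCl2, BSA and DTT. Triplicate IC50 values (nM) calculated relative to untreated solvent control.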

## CCNc1cc(Nc2ccc(C(=O)N3CCC(N4C[C@@H]5C[C@H]4CO5)CC3)c3c2OCC3)nc2[nH]cc(C(F)(F)F)c12 [Example 105, (4-((1S,4S)-2-oxa-5-azabicyclo[2.2.1]heptan-5-yl)piperidin-1-yl)(7-((4-(ethylamino)-3-(trifluoromethyl)-1H-pyrrolo[2,3-b]pyridin-6-yl)amino)-2,3-dihydrobenzofuran-4-yl)methanone]
DYRK2
  remaining binding at 1 µM: 8%
ALK (C1156Y)
  remaining binding at 1 µM: 2%
DYRK1B
  remaining binding at 1 µM: 0.9%
CLK3
  remaining binding at 1 µM: 5.9%
CLK1
  remaining binding at 1 µM: 1.5%
ALK
  remaining binding at 1 µM: 0.3%
CLK2
  remaining binding at 1 µM: 0.35%
IL-6
  inhibition at 0.5 µM: 33.2%
Human DYRK1A and Tau; 0.25 uM
  inhibition at 0.25 µM: 60.2%
Human DYRK1A and Tau; 0.5 uM
  inhibition at 0.5 µM: 74%
Human DYRK1A and Tau; 1 uM
  inhibition at 1 µM: 92%
[1]
  IC50: < 100 nM
